Measurements as given in ChEMBL document CHEMBL1139063, “Inhibitory effects of phloridzin dihydrate on the activity of mushroom (Agaricus bisporus) tyrosinase” (Bioorg Med Chem, 2007).
One block for each molecule: values may come before it.

Key:
Tyrosinase = biological target: T1, Tyrosinase (Agaricus bisporus, UniProt O42713); test: Inhibition of diphenolase activity of mushroom tyrosinase
T1 sequence (O42713 whole entry): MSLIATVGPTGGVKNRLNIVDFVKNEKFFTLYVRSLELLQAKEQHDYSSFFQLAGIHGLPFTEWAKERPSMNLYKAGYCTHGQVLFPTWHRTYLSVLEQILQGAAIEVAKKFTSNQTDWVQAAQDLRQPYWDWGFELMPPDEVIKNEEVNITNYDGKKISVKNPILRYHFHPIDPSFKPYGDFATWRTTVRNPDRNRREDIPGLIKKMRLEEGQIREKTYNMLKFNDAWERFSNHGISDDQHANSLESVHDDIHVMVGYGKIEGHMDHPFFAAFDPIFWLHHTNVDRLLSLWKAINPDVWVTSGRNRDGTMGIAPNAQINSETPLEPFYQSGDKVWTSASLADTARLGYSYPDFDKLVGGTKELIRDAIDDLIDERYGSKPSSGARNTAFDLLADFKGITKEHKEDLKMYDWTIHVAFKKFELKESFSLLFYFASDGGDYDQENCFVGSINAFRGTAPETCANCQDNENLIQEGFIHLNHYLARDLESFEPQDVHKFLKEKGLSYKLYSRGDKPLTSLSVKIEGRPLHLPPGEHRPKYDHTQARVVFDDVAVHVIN

[1] = substrate: O=C(CCc1ccc(O)cc1)c1c(O)cc(O)cc1O[C@@H]1O[C@H](CO)[C@@H](O)[C@H](O)[C@H]1O; conditions: Agaricus bisporus
Description: Activity of mushroom tyrosinase diphenolase

IC50 (Tyrosinase): 110 µM | Ki (Tyrosinase): 64.3 µM
Molecule: O=C(CCc1ccc(O)cc1)c1c(O)cc(O)cc1O[C@@H]1O[C@H](CO)[C@@H](O)[C@H](O)[C@H]1O

B1: Tyrosinase (Agaricus bisporus), O42713 (protein)
chain: T1 sequence (O42713 whole entry)
Km [1]: 627 µM
